Consider two molecules from patent US20210268029A1, “METHODS FOR TREATING CANCER WITH MANUFACTURED T CELLS” (RAPA THERAPEUTICS, LLC, priority 2018, published 2021).

Holding throughout (assay type): cell-based
For assay [1], the system named is human CD4^+ and CD8^+ T cells. Nature of the assay: Western blot of p62, phospho-RAPTOR and BIM after 16-hr pre-incubation (FIGS. 11-13). Here is the method:
For FIGS. 11-13, human CD4^+ and CD8^+ T cells were cultured using a 16-hr pre-incubation interval prior to the addition of 3/28 beads at the reduced ratio of 1:3 beads-to-T cells. As indicated in FIGS. 11-13, the various T cell cultures received different methods of mTOR inhibition (rapamycin at 1.0 μM; temsirolimus at 1.0 or 0.1 different conditions of exogenous IL-2 addition, and different conditions relative to addition of the anti-IL-2 receptor monoclonal antibody, daclizumab. After the 16-hr pre-incubation interval, cells were harvested from the T cell cultures, protein was isolated, and p62 (FIG. 11), phospho-RAPTOR (FIG. 12), or BIM (FIG. 13) and the housekeeper gene β-actin were quantified by western blot.
(In general: A western blot detects proteins with antibodies after separation by electrophoresis.)

A further assay concerns CD4^+ and CD8^+ T cells. Nature of the assay: Cytokine secretion potential of cultured T cells by Luminex, day 6 and day 13 (FIGS. 3A-3B). How it is done: To evaluate this, we tested cytokine secretion potential of the manufactured T cells at the end of cell culture (day 6) and then again one week after ex vivo expansion after maximal co-stimulation (3/28 bead-to-T cell ratio, 3:1) and propagation in media devoid of any inhibitors. In FIGS. 3A-3B, CD4^+ and CD8^+ T cells were purified and cultured for 6-days either with or without a 16-hr interval of pre-incubation prior to co-stimulation (1:1 ratio of 3/28 beads-to-T cells). As indicated, temsirolimus was added at concentrations of either 1.0 or 0.1 μM; all cultures were supplemented with IFN-α (10,000 IU/ml) and daclizumab (50 μg/ml). On day 6 of culture, the resultant T cells were co-stimulated for 24 hr using a 3:1 ratio of 3/28 beads; the supernatant was tested for cytokine content by Luminex assay (results are described as pg per ml of cytokine secreted per million cells per 24 hr). […] N.A, abbreviation indicates not applicable (insufficient T cell yield to perform assay).

Another assay deals with T cells. Kind of assay: FoxP3 and TBET intra-cellular expression in T cells cultured ex vivo, day 6 (FIGS. 1A-1B). How it is done: T cells were cultured ex vivo, as indicated, using various ratios of anti-CD3, anti-CD28 beads to T cells (1:1 or 1:12); the mTOR inhibitor temsirolimus (1 μM); without or with the anti-IL-2 receptor monoclonal antibody daclizumab (5 or 50 μg/ml); and either Th1 polarization cytokines (IFN-alpha; 10,000 IU/ml) or control regulatory T cell polarization (IL-2 plus TGF-β). At day 6 of culture, the T cells were evaluated for intra-cellular expression of the regulatory T cell transcription factor FoxP3 and the Th1 transcription factor TBET. (FIGS. 1A-1B).

The mark [2] stands for this setting: pre-incubation plus high-dose temsirolimus, compared with other conditions.
[3] abbreviates: temsirolimus 1.0 μM, after 24 hr maximal co-stimulation, with or without overnight pre-incubation.
[4] abbreviates: TREG-permissive culture: bead ratio 1:12, no IFN-α, exogenous IL-2 plus TGF-β.

In the case of `CO[C@H]1C[C@@H]2CC[C@@H](C)[C@@](O)(O2)C(=O)C(=O)N2CCCC[C@H]2C(=O)O[C@H]([C@H](C)C[C@@H]2CC[C@@H](OC(=O)C(C)(CO)CO)[C@H](OC)C2)CC(=O)[C@H](C)/C=C(\C)[C@@H](O)[C@@H](OC)C(=O)[C@H](C)C[C@H](C)/C=C/C=C/C=C/1C` [temsirolimus], in assay [1] (high-dose temsirolimus compared to low-dose temsirolimus or high-dose rapamycin), the phospho-RAPTOR result is listed as “lower levels”. Also, in assay [1] (pre-incubation, 1:3 beads, daclizumab, rapamycin 1 μM or temsirolimus 1.0 or 0.1), the “autophagy marker p62” value was “autophagy could be realized”. In addition, in the assay with CD4^+ and CD8^+ T cells (setting [2]), the “day 13 T cell IFN-γ secretion” value is listed as “highest” and the “day 13 T cell TNF-α secretion” value was “highest”. Besides, in the assay with CD4^+ and CD8^+ T cells (temsirolimus 0.1 μM), the “day 6 T cell cytokine secretion potential” value is recorded as “only partially reduced”. Also, in the assay with CD4^+ and CD8^+ T cells (setting [3]), the “day 6 T cell IFN-γ secretion” value is on record as “very low levels” and the “day 6 T cell TNF-α secretion” value was “very low levels”. Moreover, the FoxP3 expression entry in the assay with T cells (setting [4]) is listed as “not effective”. Further, the “expression of TBET” value with T cells (combination of temsirolimus and anti-IL-2 receptor monoclonal antibody) is given as “increased expression”. The FoxP3 expression result in the assay with T cells (exogenous IL-2 added in combination with IFN-α) is reported as “not effective”. Besides, the “T cell expression of FoxP3” value with T cells (temsirolimus 1.0 μM with IFN-α, relative to day 0 input T cells) was “reduced”.

B1: daclizumab: anti-IL-2 receptor monoclonal antibody (antibody, chains of the INN, looked up, V domains shown)
VH: QVQLVQSGAEVKKPGSSVKVSCKASGYTFTSYRMHWVRQAPGQGLEWIGYINPSTGYTEYNQKFKDKATITADESTNTAYMELSSLRSEDTAVYYCARGGGVFDYWGQGTLVTVSS
VL: DIQMTQSPSTLSASVGDRVTITCSASSSISYMHWYQQKPGKAPKLLIYTTSNLASGVPARFSGSGSGTEFTLTISSLQPDDFATYYCHQRSTYPLTFGQGTKVEVK
On to B1, for which the TBET expression entry in the assay on T cells (50 μg/ml daclizumab compared with 5 μg/ml) is on record as “higher degree”. Besides, the FoxP3 expression entry in the assay with T cells (IL-2 receptor blockade added to temsirolimus and IFN-α, 50 μg/ml more effective than 5 μg/ml) is “further reduced”; with T cells (setting [4]) it was “not effective”.
